The subject of experiment [1] is HeLa cell clones with PSMB5 point mutations. In words: Cell viability assay of single clones with PSMB5 point mutations. The following applies: single clones with PSMB5 R78N, V9OL, A108T, C122F, G242D; FIG. 9E. The experiment is classed as cell-based. On the procedure:
Cells were seeded in 96-well plates 24 hour before drug or toxin treatment (5,000 cells for diphtheria toxin (DT) and 3,000 cells for bortezomib), and different concentrations of bortezomib or DT were added. Cells were incubated at 37° C. for 48 hour (DT) or 72 hour (bortezomib) before the addition of 1 mg/ml of MTT (3-[4,5 -dimethylthiazol-2-yl]-2,5 -diphenyltetrazolium bromide). Spectrophotometer readings at 570 nm were collected using BioTek Cytation5 (BioTek Instruments).
(§1) Because missense point mutations were the predominant formats conferring drug resistance for both PSMB5 and PLK1, we decided to employ ssODN-mediated method^(24) to create specific point mutations instead of deletions for validation. We selected nine amino acid residues (R78, T80, V90, M104, A108, D110, C111, C122 and G242) in PSMB5, among which D110 and C111 were included as controls. To choose a proper amino acid for point mutation, the mutant types from screening results or previous reports were preferential choices. For the rest, we made all the substitution to alanine (Table 2). […] It remains to be determined how V90 mediates drug sensitivity and whether V90 alteration changes the structure around Bortezomib binding pocket.

Experiment [2] relates to HeLa cells with PSMB5 point mutations. The experiment is described as follows: Pooled ssODN point-mutation validation, Bortezomib resistant colonies (MTT viability). The class given is cell-based. The following applies: bortezomib 8 ng/ml, 72 hour, FIG. 9D. On the procedure:
For the validation of critical mutations of PSMB5 and PLK1, sgRNAs were designed near the mutation site, and each 119 nt ssODN donor encoded one amino acid substitution for a validated residue. All sgRNAs (sgRNA sequences for the validation of critical mutations) and ssODN donor sequences (ssODN donors encoded one amino acid substitution for a validated residue) are listed in Table 2 as follows.
HeLa cells were transfected with 1 μg of sgRNA and 2 μg of the ssODN donor in six-well plates. Fourteen days after transfection, 1.5×10^5 cells were seeded in six-well plates 24 hour before drug selection. […] The genomes of drug-resistant cells were extracted using the TIANamp Genomic DNA Kit (TIANGEN).
as §1, with “choices.” for “choices. For the rest, we made all the substitution to alanine (Table 2).”

Consider one compound from patent US20220186210A1, “METHOD FOR I[…]” (priority 2019, published 2022).

Structures are written as SMILES.

Regarding `CC(C)C[C@H](NC(=O)[C@H](Cc1ccccc1)NC(=O)c1cnccn1)B(O)O` [Bortezomib], the “cell susceptibility to Bortezomib” value in experiment [1] is “conferred Bortezomib resistance”. Moreover, the Bortezomib resistant colonies result in experiment [2] (PSMB5 control mutations D110A and C111A) was “failed to produce Bortezomib resistant colonies”; in experiment [2] (PSMB5 mutations R78N, T80A, V90A, M104A, A108T, C122F, G242D), “produced variable number of Bortezomib resistant colonies”.
